Assay results as given in article PMC6222624, “Identification of Alkaloids from Corydalis yanhusuo W. T. Wang as Dopamine D1 Receptor Antagonists by Using CRE-Luciferase Reporter Gene Assay” (Molecules : A Journal of Synthetic Chemistry and Natural …, 2018).
Like-named read-outs stand apart in the source and are kept apart here.

Experiments:
human D1 receptors = target: T1, human D1 receptors (Homo sapiens, UniProt P21728); test: Fluorescent Ca2+ mobilization assay (FLIPR) in HEK 293T cells expressing D1 receptors and Gα15; type: cell-based; details: for antagonist profile in FLIPR assay: concentration-response, Figure 4B; for antagonist profile in FLIPR assay / % Maximal Inhibition Mean ± SD (N = 3), FLIPR: dopamine 500 nM
T1 construct: The cDNA plasmids of D1-like receptors were stably transfected into HEK 293T cells; expressed in transfected cells
T1 sequence (P21728 whole entry): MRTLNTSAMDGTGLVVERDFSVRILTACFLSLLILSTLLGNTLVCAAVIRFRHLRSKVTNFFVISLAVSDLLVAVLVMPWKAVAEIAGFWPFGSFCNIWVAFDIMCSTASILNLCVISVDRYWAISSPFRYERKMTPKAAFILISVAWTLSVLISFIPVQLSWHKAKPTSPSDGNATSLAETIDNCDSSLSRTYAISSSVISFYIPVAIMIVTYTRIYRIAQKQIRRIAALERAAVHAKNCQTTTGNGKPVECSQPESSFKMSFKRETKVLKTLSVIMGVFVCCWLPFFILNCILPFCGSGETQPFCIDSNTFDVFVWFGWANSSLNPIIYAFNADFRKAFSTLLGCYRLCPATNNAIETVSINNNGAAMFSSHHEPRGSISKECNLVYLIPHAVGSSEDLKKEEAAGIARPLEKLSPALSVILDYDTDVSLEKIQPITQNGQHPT
Description: We used a fluorescent Ca^2+ mobilization assay to further evaluate the hit compounds obtained from the luciferase reporter gene assay screens. […] With the coexpression of Gα15 protein, D1 receptors can be redirected to mediate intracellular calcium mobilization upon stimulation. Calcium levels were monitored using fluorometric imaging plate reader (FLIPR). The assay can also distinguish potential antagonists from agonists.
Fluorescent Ca^2+ mobilization assay was performed using Flu-4 AM reagent as reported earlier.
(§1) All statistical calculations were performed using GraphPad Prism 5.0 (GraphPad, Avenida, CA, USA). Data from each dose-response curve were normalized to the maximal stimulation by dopamine. At least three independent experiments were performed.

dopamine D1 receptor = target: T2, dopamine D1 receptor (Homo sapiens, UniProt P21728); test: CRE-luciferase reporter gene assay in HEK-D1/CRE/Luc2P cells; type: cell-based; details: for antagonist profile in luciferase reporter gene assay: concentration-response, Figure 4A / Figure S3; for antagonist profile in luciferase reporter gene assay / Emax: dopamine 2 nM; for Emax: read-out: % Maximal Inhibition Mean ± SD (N = 3), Luciferase; for inhibition at 12.5 µM: single screening concentration 12.5 μM, read-out: inhibition in single-concentration screening (activity threshold)
T2 construct: Dopamine D1 receptor gene cloned in pcDNA 3.1 was kindly provided by Dr. Olivier Civelli; expressed in transfected cells
T2 sequence (P21728 whole entry): as above
From the text: The cDNA plasmids of dopamine D1 receptor and CRE/Luci were stably co-transfected into human embryonic kidney-293 cells (HEK293) cells (HEK-D1/CRE/Luc2P). Activation of D1 receptors leads to the elevation of cAMP and activates the cAMP response element (CRE) and therefore induces the expression of the reporter gene luciferase. We used the natural ligand dopamine as a positive control to select the cell colony and to optimize and characterize the HEK-D1/CRE/Luc2P cell system.
(§2) The pGL4.29 (CRE/luc2P//Hygro) luciferase reporter gene was stably co-transfected with dopamine D1 receptor plasmid or was stably transfected individually in HEK293 cells. Transfection was carried out with lipofectamine 2000 reagent using the protocol provided by Promega. Stable cells expressing CRE-Luciferase and D1 receptor were selected in the presence of 700 μg/mL G418 and 200 μg/mL hygromycin for 10–14 days. Stable cells expressing CRE-Luciferase were singly selected in the presence of 200 μg/mL hygromycin. The obtained stable cells were then cultured with 350 μg/mL G418 and 100 μg/mL hygromycin or only 100 μg/mL hygromycin to maintain the selective growth.
(§3) The examination of CRE-luciferase activity was performed by a modification of methods as described previously. HEK293 stable cells were seeded in 96-well plates at a density of 1.5 × 10^4 cells per well. After cells became adherent, they were […] in serum-starved DMEM for different hours to explore the most suitable starving time. Cells were then pretreated with compounds for 1 h prior to dopamine stimulation. Afterwards, the cells were lysed with luciferase lysis buffer and the luminescence of the firefly luciferase was measured with the FlexStation 3 (Molecular Devices, Sunnyvale, CA, USA).
as §1

HEK/CRE/Luc2P cells = test: Specificity control: forskolin-stimulated CRE-luciferase response in HEK/CRE/Luc2P negative control cells; type: cell-based, human; details: for decrease of forskolin-stimulated response (cAMP levels): forskolin 1 μM, high doses of compound, Figure S2
Description: HEK293 cells stably expressing cDNA plasmid of CRE/Luciferase (HEK/CRE/Luc2P) were established as the negative control cells to test the specificity to the D1 receptor for the compounds.
as §2, §3

[1] = inhibition of dopamine (500 nM) Ca2+ mobilization, HEK-D1/Gα15 cells, IC50 based on the degree of maximal inhibition, read-out: IC50 (μM) with 95% Confidence Intervals, FLIPR
[2] = inhibition of dopamine (2 nM) response, HEK-D1/CRE/Luc2P cells, IC50 based on the degree of maximal inhibition, read-out: IC50 (μM) with 95% Confidence Intervals, Luciferase

Structure (SMILES)	antagonist profile in FLIPR assay (human D1 receptors)	% Maximal Inhibition Mean ± SD (N = 3), FLIPR (human D1 receptors; HEK-D1/Gα15 cells) [%]	IC50 (human D1 receptors; [1]) [µM]	antagonist profile in luciferase reporter gene assay (dopamine D1 receptor)	Emax (dopamine D1 receptor; HEK-D1/CRE/Luc2P cells) [%]	IC50 (dopamine D1 receptor; [2]) [µM]	inhibition at 12.5 µM (dopamine D1 receptor) [%]	decrease of forskolin-stimulated response (cAMP levels) (HEK/CRE/Luc2P cells) [%]	IC50 (dopamine D1 receptor) [µM]	IC50 (human D1 receptors) [µM]	EC50 (HEK/CRE/Luc2P cells; Homo sapiens, Figure S1, read-out: EC50 for increasing intracellular cAMP (CRE-luciferase)) [nM]
COc1cc2c(cc1OC)[C@@H]1Cc3ccc(OC)c(OC)c3CN1CC2 [Compound 2, Tetrahydropalmatine]	concentration-dependent antagonist responses	92.64 ± 1.7945	2.24	partial antagonist effects	72.5 ± 4	0.644	≥ 50	–	–	–	–
COc1cc2c(cc1OC)[C@H]1[C@@H](C)c3ccc(OC)c(OC)c3CN1CC2 [Compound 4, Corydaline]	concentration-dependent antagonist responses	90.32 ± 1.9817	3.36	–	83.5 ± 1.45	2.46	≥ 50	–	–	–	–
COc1cc2c(cc1OC)-c1c(C)c3ccc(O)c(OC)c3c[n+]1CC2 [Compound 5, 13-methyldehydrocorydalmine]	concentration-dependent antagonist responses	77.04 ± 6.6410	3.08	–	86 ± 1.76	10.3	≥ 50	25	–	–	–
COc1cc2c(cc1O)CC[n+]1cc3c(OC)c(OC)ccc3c(C)c1-2 [Compound 6, Dehydrocorybulbine]	concentration-dependent antagonist responses	94.38 ± 0.1939	0.612	–	97.52 ± 0.626	0.621	≥ 50	–	–	–	–
COc1cc2c(cc1OC)-c1c(C)c3ccc(OC)c(OC)c3c[n+]1CC2 [Compound 7, Dehydrocorydaline]	concentration-dependent antagonist responses	90.61 ± 0.6541	1.53	–	98.23 ± 0.33	1.29	≥ 50	–	–	–	–
COc1cc2c(cc1OC)-c1cc3ccc(OC)c(OC)c3c[n+]1CC2 [Compound 8, Palmatine]	weak inhibitory effects	–	–	–	93.86 ± 0.437	–	≥ 50	25	7.08	–	–
COc1cc2c(cc1O)-c1cc3ccc(OC)c(OC)c3c[n+]1CC2 [Compound 9, Columbamine]	concentration-dependent antagonist responses	86.43 ± 0.7188	–	–	97.5 ± 0.218	–	≥ 50	–	1.21	3.4	–
COc1cc2c(cc1O)C1Cc3ccc(OC)c(OC)c3C[N+]1(C)CC2 (stereo not shown) [Compound 10, N-methyltetrahydrocolumbamine]	weak inhibitory effects	–	–	partial antagonist effects	78.2 ± 1.78	13.4	≥ 50	–	–	–	–
C=C[C@@]1(C)CC(=O)[C@]2(O)[C@@]3(C)[C@@H](O)CCC(C)(C)[C@@H]3[C@H](O)[C@H](OC(C)=O)[C@@]2(C)O1 [Forskolin, reference compound]	–	–	–	–	–	–	–	–	–	–	1200
